According to ChEMBL document CHEMBL3826923, “Synthesis and biological activity of novel ester derivatives of N(3)-(4-metoxyfumaroyl)-(S)-2,3-diaminopropanoic acid containing amide and keto function as inhibitors of glucosamine-6-phosphate synthase” (Bioorg Med Chem Lett, 2016):

Assays:
[1] = system: Staphylococcus aureus; test: Antimicrobial activity against Staphylococcus aureus ATCC 29213 after 24 hrs by serial two fold dilution method; format: functional; conditions: ATCC 29213, 24 h
[2] = system: Escherichia coli; test: Antimicrobial activity against Escherichia coli PCM 2560 after 24 hrs by serial two fold dilution method; format: functional; conditions: PCM 2560, 24 h
[3] = Inhibition of Candida albicans glucosamine-6-phosphate synthase expressed in Escherichia coli using D-fructose-6-phosphate as substrate after 30 mins
[4] = system: Nakaseomyces glabratus; test: Antimicrobial activity against Candida glabrata DSM 11226 after 48 hrs by serial two fold dilution method; format: functional; conditions: DSM 11226, 48 h
[5] = system: Candida albicans; test: Antimicrobial activity against Candida albicans ATCC 10231 after 48 hrs by serial two fold dilution method; format: functional; conditions: ATCC 10231, 48 h

Row | SMILES | MIC80 [1] | MIC80 [2] | IC50 [3] | MIC80 [4] | MIC80 [5]
1 | COC(=O)/C=C/C(=O)NC[C@H](N)C(=O)OCC(=O)N(C)C.Cl | 512 µg/mL | > 1020 µg/mL | 66.6 µM | > 1020 µg/mL | 2 µg/mL
2 | COC(=O)/C=C/C(=O)NC[C@H](N)C(=O)O[C@@H](C)C(=O)N(C)C.Cl | > 1020 µg/mL | > 1020 µg/mL | > 5000 µM | > 1020 µg/mL | 256 µg/mL
3 | COC(=O)/C=C/C(=O)NC[C@H](N)C(=O)OCC(N)=O.Cl | > 1020 µg/mL | > 1020 µg/mL | 202 µM | > 1020 µg/mL | 128 µg/mL
4 | CNC(=O)[C@H](C)OC(=O)[C@@H](N)CNC(=O)/C=C/C(=O)OC.Cl | > 1020 µg/mL | > 1020 µg/mL | 199 µM | > 1020 µg/mL | 16 µg/mL
5 | COC(=O)/C=C/C(=O)NC[C@H](N)C(=O)O[C@@H](C)C(N)=O.Cl | > 1020 µg/mL | > 1020 µg/mL | 82.1 µM | > 1020 µg/mL | 8 µg/mL

The next compounds have a lower IC50 [3] than those just listed; values first:

Row | MIC80 [1] | MIC80 [2] | IC50 [3] | MIC80 [4] | MIC80 [5] | SMILES
6 | 1020 µg/mL | > 1020 µg/mL | 27 µM | > 1020 µg/mL | 1 µg/mL | CNC(=O)COC(=O)[C@@H](N)CNC(=O)/C=C/C(=O)OC.Cl
7 | > 1020 µg/mL | > 1020 µg/mL | 5.17 µM | 512 µg/mL | 0.5 µg/mL | COC(=O)/C=C/C(=O)NC[C@H](N)C(=O)OCC(=O)C(C)(C)C.Cl
8 | > 1020 µg/mL | > 1020 µg/mL | 5.08 µM | 512 µg/mL | 0.25 µg/mL | COC(=O)/C=C/C(=O)NC[C@H](N)C(=O)OCC(C)=O.Cl
9 | > 1020 µg/mL | > 1020 µg/mL | 4.91 µM | 512 µg/mL | 0.5 µg/mL | COC(=O)/C=C/C(=O)NC[C@H](N)C(=O)OC(C)C(C)=O.Cl (stereo not given in full)
10 | > 1020 µg/mL | > 1020 µg/mL | 4.03 µM | > 1020 µg/mL | > 1020 µg/mL | COC(=O)/C=C/C(=O)NC[C@H](N)C(=O)O
